According to paper PMC6737615, “Complete oxidation of hydroxymethylfurfural to furandicarboxylic acid by aryl-alcohol oxidase” (Biotechnology for Biofuels, 2019):
One block for each molecule: values may come before it.

How the values were obtained:
[1] = target: T1, aryl-alcohol oxidase (AAO) (Pleurotus eryngii, UniProt O94219); test: turnover at saturating aldehyde, spectrophotometric acid formation; format: biochemical; set-up: mature AAO cDNA (GenBank AF064069) expressed in E. coli
T1 sequence (O94219 28-593): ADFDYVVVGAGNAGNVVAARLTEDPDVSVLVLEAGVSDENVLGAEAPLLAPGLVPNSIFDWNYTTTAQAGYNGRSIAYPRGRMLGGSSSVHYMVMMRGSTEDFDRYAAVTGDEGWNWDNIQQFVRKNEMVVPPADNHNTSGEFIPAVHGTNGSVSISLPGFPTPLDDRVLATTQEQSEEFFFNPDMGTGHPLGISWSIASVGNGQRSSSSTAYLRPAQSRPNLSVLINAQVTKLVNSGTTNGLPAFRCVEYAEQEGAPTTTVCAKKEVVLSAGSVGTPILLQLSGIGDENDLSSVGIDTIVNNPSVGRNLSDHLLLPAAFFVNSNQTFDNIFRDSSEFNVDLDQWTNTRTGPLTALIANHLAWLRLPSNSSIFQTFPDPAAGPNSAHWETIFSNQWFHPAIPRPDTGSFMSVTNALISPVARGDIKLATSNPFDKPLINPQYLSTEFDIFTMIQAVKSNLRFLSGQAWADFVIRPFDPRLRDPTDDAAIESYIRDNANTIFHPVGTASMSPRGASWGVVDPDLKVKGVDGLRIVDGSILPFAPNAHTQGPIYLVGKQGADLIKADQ
Procedure: turnover at saturating aldehyde, spectrophotometric acid formation on aryl-alcohol oxidase (AAO) | Turnovers for aldehyde oxidation were calculated at saturating concentration of p-anisaldehyde

[2] = target: T1, aryl-alcohol oxidase (AAO); test: biochemical
[3] = target: aryl-alcohol oxidase (AAO) (Pleurotus eryngii, UniProt O94219, F528H); test: conversion to FDCA by purified variant with catalase, HPLC; format: biochemical
Text: (§1) conversion to FDCA by purified variant with catalase, HPLC on aryl-alcohol oxidase (AAO) | production of FDCA from HMF by native AAO, and its F501H, F397Y, and I500M/F501 W variants

[4] = target: aryl-alcohol oxidase (AAO) (Pleurotus eryngii, UniProt O94219, I527M/F528W); test: as above; format: biochemical
Text: as §1

[5] = target: aryl-alcohol oxidase (AAO) (Pleurotus eryngii, UniProt O94219, F424Y); test: as above; format: biochemical
Text: as §1

[6] = target: T1, aryl-alcohol oxidase (AAO); test: HPLC and 1H-NMR of oxidation by purified AAO; format: biochemical; set-up: mature AAO cDNA (GenBank AF064069) expressed in E. coli

SMILES: COc1ccc(C=O)cc1 [p-anisaldehyde]
p-Anisaldehyde / kcat [1]: 0.122 s⁻¹

IC50 [2]: ~158 µM
SMILES: OO [H2O2]

SMILES: O=Cc1ccc(CO)o1 [HMF]
% conversion [3]: 97.9 % conversion | % conversion [4]: 52.8 % conversion | % conversion [5]: 75.7 % conversion | HPLC and 1H-NMR of oxidation by purified AAO [6]: 2.54 h⁻¹
